Test results as given in patent US9150617B2, “Immunoregulatory peptides and methods of use” (13 Therapeutics, Inc., priority 2009, dated 2015).
Ends that are not written are not given here.

Assays:
[1] = system: TNF-α secretion from RAW264.7 cells; assay: Inhibition of TNF-α secretion from RAW264.7 cells stimulated with CpG-ODN (ELISA); format: cell-based, murine; settings: for activity vis-à-vis P13 (inhibition of TNF-α after stimulation of RAW264.7 cells with CpG): SAR, compared with P13; for Inhibition of TNF-α secretion (percent inhibition): 4 hours (Table 3)
Experimental: (§1) RAW264.7 (murine monocyte/macrophage cells (American Type Culture Collection) were cultured at 37° C. in a 5% CO2 humidified incubator and grown in DMEM (Invitrogen Life Technologies) supplemented with 10% (v/v) heat-inactivated FCS, 1.5 mM L-glutamine, 100 U/ml penicillin, and 100 μg/ml streptomycin.
(§2) RAW264.7 cells were plated at 1.5×10^5 cells/well −3×10^5 cells/well in 48-well plates. After 24 hours, the cells were incubated with peptides at various concentrations at room temperature in triplicate either before, simultaneous with, or after activation with various PAMPs for 18 hours. Cell-free supernatants were analyzed for cytokines by ELISA, in quadruplicate. RAW264.7 cells were stimulated with either CpG-ODN (1 μg/ml or 1.25 μg/ml), LPS (about 1 ng/ml), Poly (I:C) (about 10 μg/ml), flagellin (about 5 ng/ml), or zymosan (about 10 μg/ml). Dose response curves were done with each PAMP to determine optimal stimulation concentration. For CpG-ODN stimulation, cells were incubated for 4 hours at 37° C., supernatants collected, and TNF-α measured by ELISA. Any cytokine involved in inflammatory disease mediated toll receptor signaling can be measured using similar assays.
The effect of several peptides on TNF-α secretion from RAW264.7 cells in response to stimulation by CpG-ODN was studied. Each peptide was initially tested at 3 concentrations, 37 μM, 22.2 μM, and 11.1 μM. […] The peptides were then tested at 11.1 μM, 7.4 μM, and 3.7 μM (Table 3). […] Cell viability was examined for each peptide at the concentrations tested for TNF-α inhibition.
(§3) Inhibition of TNF-α secretion by various T-peptides was examined. RAW264.7 cells were plated at 3×10^5 cells/well in 48-well plates. After 24 h the cells were incubated with peptide at various concentrations at room temperature in triplicate for 15 minutes and then stimulated with 1.25 ug/ml CpG-ODN or 1 ng/ml LPS. Cells were then incubated for 4 hours at 37° C., supernatants collected, and TNF-α measured by ELISA. Percent inhibition was calculated by comparing TNF-α secretion from cells incubated with peptide to control cells with no peptide treatment. The inhibition by peptides T3, T11, T21, T36, T37, T51 and T52 were compared to inhibition by an analogue of P13 having a sequence of nine arginine residues (SEQ ID NO: 379) at the C-terminus (P13-R^9; SEQ ID NO: 378). (Table 4).

[2] = system: TNF-α secretion from RAW264.7 cells; assay: Inhibition of TNF-α secretion from RAW264.7 cells stimulated with LPS (ELISA); format: cell-based, murine; settings: LPS Stimulation, 1 ng/ml LPS
Experimental: as §1, §2, §3

mouse middle ear = assay: Effects caused by peptide without added bacteria on mouse middle ear; format: in vivo; settings: 10 μM, no bacteria, 3 days
Experimental: (§4) Induction of otitis media: BALB/c (Bagg albino) mice, about 8-12 weeks of age, are anesthetized with a subcutaneous injection of xylazine & ketamine (about 0.1 mg/30 gm body weight) and their ears examined under the operating microscope to assure they are free of infection or perforation. One group of animals is injected with PBS (Phospho-buffered saline) in one ear and with about 10 μM of a peptide of Table 1 in the opposite ear, to determine the effect of peptide without added bacteria. A second group of animals receive about 5.0 μl of PBS plus heat-inactivated S. pneumoniae (about 10^9 CFU/ml) in one ear and about 5.0 μl of peptide (about 10 μM) plus heat-inactivated S. pneumoniae (about 10^9 CFU/ml) in the opposite ear. Injections are done through the tympanic membrane. Animals are killed about 3 days after bacterial injection and tissue is histologically processed to assess middle ear disease. Inflammation is quantified by measuring 1) area of fluid present in the middle ear; 2) number of cells in middle ear fluid; and 3) thickness of the tympanic membrane (TM) taken at a point away from the injection site. Data are obtained from mice (n=18) injected with PBS alone for each of the histological parameters measured, to serve as a control group.
To determine the effect of peptide without added bacteria, animals are injected in one ear with PBS alone, and the other ear with about 10 μM peptide. Paired t-tests are done comparing the effect of PBS alone with the effect of peptide for each of the three histological parameters: 1) area of fluid present in the middle ear; 2) number of cells in middle ear fluid; and 3) thickness of the tympanic membrane. […]
Five mice were injected in one ear with PBS and in the opposite ear with 10 μM peptide P13. Three days later the animals were killed, and the middle ears embedded, sectioned, stained and evaluated for fluid area, infiltrating cell number, and thickness of the tympanic membrane. […]

[3] = system: middle ear inflammation in BALB/c mice; assay: Middle ear inflammation, heat-inactivated S. pneumoniae plus peptide injected into the middle ear; format: in vivo, mouse; settings: heat-inactivated S. pneumoniae into middle ears of BALB/c mice
Experimental: as §4, with “Injections are done through the tympanic membrane. Animals are killed about 3 days after bacterial injection and tissue is histologically processed to assess middle ear disease.” left out
At the end of the experimental treatment, mice are killed and tissues collected for histology. […] This enables all histologic embedding, sectioning, staining, and analysis to be done on the two sides simultaneously to reduce any impact of processing variables on the subsequent quantitative analyses. […]

[4] = system: toll-like receptor-dependent signaling; assay: Cytokine secretion in response to TLR activation; format: cell-based
Experimental: as §2

[5] = system: LPS-induced septic shock in mice; assay: Mouse model of LPS-induced septic shock; format: in vivo
Experimental: BALB/c mice are injected i.p. with PBS, LPS at about 100 μg/mouse/250 μl, or about 100 μg LPS plus various doses of peptides. Serum is collected at about 2 and about 6 hours after treatment and evaluated for the pro-inflammatory cytokines MIP-2 and TNF-α by ELISA, and for soluble ICAM-1.

[6] = system: tympanic membrane of BALB/c mice; assay: Assay for crossing the tympanic membrane by FITC-labeled peptide; format: in vivo, mouse; settings: 10 μg/30 μl dropped onto ear with AOM, 10 minutes; fluorescent microscopy of middle ear fluid
Experimental: Three BALB/c mice at 8-12 weeks of age were anesthetized with ketamine (100 mg/kg) and xylazine (20 mg/kg) prior to administration of bacteria. A ventral midline incision was made in the neck, and the bulla exposed after blunt dissection. The middle ear was inoculated through the bony wall with approximately 3.5 μl of a bacterial suspension (heat inactivated S. pneumoniae 10^10 CFU/ml) with a thin needle. Both the right and left ears received bacteria by bulla injection.
After 24 hours, animals received an otoscopic exam using an operating microscope. Mice were anesthetized as described above, and the tympanic membrane was inspected for the presence or absence of the following three criteria for acute otitis media (AOM): 1) middle ear effusion behind the tympanic membrane; 2) change in color of the tympanic membrane from clear to red or white (indicating inflammation and/or purulence in the middle ear); 3) change in position of the tympanic membrane from neutral to bulging or retracted.
Four ears met the criteria for AOM. FITC labeled peptide P13-R^9 (SEQ ID NO: 378) (10 μg/30 μl) was dropped onto the middle ear. The peptide was allowed to absorb for 10 minutes. After 10 minutes, the external ear canal was flushed twice, and blotted to get rid of any remaining peptide. […]

[7] = 7.1 μM peptide, CpG stimulation, 1.25 ug/ml CpG-ODN
[8] = 11.1 μM peptide, CpG stimulation, 1.25 ug/ml CpG-ODN
[9] = 22 μM peptide, CpG stimulation, 1.25 ug/ml CpG-ODN
[10] = 11.1 μM peptide, 1 ug/ml CpG-ODN, 4 hours (Table 2)
[11] = 22.2 μM peptide, 1 ug/ml CpG-ODN, 4 hours

For AIIKVYVYACIRRRRRRRRR [T52-R^9], the “Percent Inhibition of TNF-α secretion” value [1, 7] was 97.8%, the “Percent Inhibition of TNF-α secretion” value [1, 8] was 99.2% and the “Percent Inhibition of TNF-α secretion” value [1, 9] was 100%. The “activity vis-à-vis P13 (inhibition of TNF-α after stimulation of RAW264.7 cells with CpG)” value [1] was “superior activity”.

In the case of AIVKLTVYACIRRRRRRRRR [T51-R^9], the “Percent Inhibition of TNF-α secretion” value [1, 7] is reported as 94%, the “Percent Inhibition of TNF-α secretion” value [1, 8] is reported as 98% and the “Percent Inhibition of TNF-α secretion” value [1, 9] is reported as 99.7%. The “activity vis-à-vis P13 (inhibition of TNF-α after stimulation of RAW264.7 cells with CpG)” value [1] was “superior activity”.

For AIVKLTVYDCIRRRRRRRRR [T3-R^9], the “Percent Inhibition of TNF-α secretion” value [1, 7] was 85%, the “Percent Inhibition of TNF-α secretion” value [1, 8] was 92% and the “Percent Inhibition of TNF-α secretion” value [1, 9] was 99%. The “activity vis-à-vis P13 (inhibition of TNF-α after stimulation of RAW264.7 cells with CpG)” value [1] was “superior activity”, the “Percent Inhibition of TNF-α secretion” value ([2]; 7.4 uM peptide) was 33% and the “Percent Inhibition of TNF-α secretion” value ([2]; 11.1 uM peptide) was 65%. For the same substance, the “Percent Inhibition of TNF-α secretion” value ([2]; 22.2 uM peptide) was 77%.

For DIIKLTVYDCIRRRRRRRRR [T36-R^9], the “Percent Inhibition of TNF-α secretion” value [1, 7] was 50%, the “Percent Inhibition of TNF-α secretion” value [1, 8] was 70% and the “Percent Inhibition of TNF-α secretion” value [1, 9] was 82%. For the same substance, the “activity vis-à-vis P13 (inhibition of TNF-α after stimulation of RAW264.7 cells with CpG)” value [1] was “superior activity”.

In the case of DIVKLTVYACIRRRRRRRRR [T11-R^9], the “activity vis-à-vis P13 (inhibition of TNF-α after stimulation of RAW264.7 cells with CpG)” value [1] is reported as “superior activity”, the “Percent Inhibition of TNF-α secretion” value ([2]; 7.4 uM peptide) is reported as 68% and the “Percent Inhibition of TNF-α secretion” value ([2]; 11.1 uM peptide) is reported as 81%. For the same substance, the “Percent Inhibition of TNF-α secretion” value ([2]; 22.2 uM peptide) was 91%.

For DIVKLTVYDCI [Peptide P13, DIVKLTVYDCI], the “difference between PBS-injected ear and P13-injected ear in cell number” value (mouse middle ear) was “no differences”, the “difference between PBS-injected ear and P13-injected ear in fluid area” value (mouse middle ear) was “no differences” and the “difference between PBS-injected ear and P13-injected ear in tympanic membrane thickness” value (mouse middle ear) was “no differences”.

In the case of DIVKLTVYDCIRRRRRRRRR [P13-R^9], the “Percent Inhibition of TNF-α secretion” value [1, 7] is reported as 32%, the “Percent Inhibition of TNF-α secretion” value [1, 8] is reported as 65% and the “Percent Inhibition of TNF-α secretion” value [1, 9] is reported as 86%. For the same substance, the “Percent Inhibition of TNF-α secretion” value ([2]; 7.4 uM peptide) was 0%, the “Percent Inhibition of TNF-α secretion” value ([2]; 11.1 uM peptide) was 13% and the “Percent Inhibition of TNF-α secretion” value ([2]; 22.2 uM peptide) was 69%. For the same substance, the “bacterial-induced inflammatory response in the middle ear” value [3] was “dramatically reduced”, the “cytokine secretion in response to TLR activation” value [4] was “effectively inhibits” and the pro-inflammatory mediators [5] was “reduce pro-inflammatory mediators”.

DIVKLYVYDCIRRRRRRRRR [T21-R^9] was tested, and the “Percent Inhibition of TNF-α secretion” value [1, 7] was 69%, the “Percent Inhibition of TNF-α secretion” value [1, 8] was 90% and the “Percent Inhibition of TNF-α secretion” value [1, 9] was 98%. The “activity vis-à-vis P13 (inhibition of TNF-α after stimulation of RAW264.7 cells with CpG)” value [1] was “superior activity”.

For DIVKVTVYDCIRRRRRRRRR [T37-R^9], the “Percent Inhibition of TNF-α secretion” value [1, 7] was 46%, the “Percent Inhibition of TNF-α secretion” value [1, 8] was 87% and the “Percent Inhibition of TNF-α secretion” value [1, 9] was 93%. For the same substance, the “activity vis-à-vis P13 (inhibition of TNF-α after stimulation of RAW264.7 cells with CpG)” value [1] was “superior activity”.

In the case of “FITC-labeled P13-R^9: FITC (Fluorescein isothiocyanate) labeled peptide P13-R^9 (SEQ ID NO: 378) (DIVKLTVYDCIRRRRRRRRR; also: FITC label)”, the “crossing the tympanic membrane” value [6] is reported as “crosses the tympanic membrane and associates with cells in middle ear fluid”.

In the case of “FTILLEEYFMYRGLLGLRIRRRRRRRRR [Peptide 103 (S19)-R^9]”, the “Inhibition of TNF-α secretion (percent inhibition)” value (shortened to “Inhibition … (percent inhibition)”) ([1]; 7 μM peptide, 1 ug/ml CpG-ODN) is reported as 87%, the “Inhibition … (percent inhibition)” value ([1]; 11 μM peptide, 1 ug/ml CpG-ODN) is reported as 93% and the “Percent Inhibition of TNF-α secretion” value [1, 10] is reported as 93%. The “Percent Inhibition of TNF-α secretion” value [1, 11] was 99%.

With “ILLEEYFMYRGLLGLRIRRRRRRRRR [Peptide 105 (S21)-R^9]” the “Inhibition … (percent inhibition)” value ([1]; 7 μM peptide, 1 ug/ml CpG-ODN) was 52%, the “Inhibition … (percent inhibition)” value ([1]; 11 μM peptide, 1 ug/ml CpG-ODN) was 62% and the “Percent Inhibition of TNF-α secretion” value [1, 10] was 62%. For the same substance, the “Percent Inhibition of TNF-α secretion” value [1, 11] was 91%.

With “LLEEYFMYGLLGLRIRRRRRRRRR [Peptide 106 (S22)-R^9]” the “Inhibition … (percent inhibition)” value ([1]; 7 μM peptide, 1 ug/ml CpG-ODN) was 53%, the “Inhibition … (percent inhibition)” value ([1]; 11 μM peptide, 1 ug/ml CpG-ODN) was 70% and the “Percent Inhibition of TNF-α secretion” value [1, 10] was 70%. The “Percent Inhibition of TNF-α secretion” value [1, 11] was 92%.

With “TILLEEYFMYRGLLGLRIRRRRRRRRR [Peptide 104 (S20)-R^9]” the “Inhibition … (percent inhibition)” value ([1]; 7 μM peptide, 1 ug/ml CpG-ODN) was 60%, the “Inhibition … (percent inhibition)” value ([1]; 11 μM peptide, 1 ug/ml CpG-ODN) was 74% and the “Percent Inhibition of TNF-α secretion” value [1, 10] was 74%. The “Percent Inhibition of TNF-α secretion” value [1, 11] was 93%.
